Laboratory results from patent US12077503B2, “Substituted cyclic amides and their use as herbicides” (FMC CORPORATION, priority 2015, dated 2024).

Key:
Type in all cases: in vivo
[1] = tested on: barnyardgrass (Echinochloa crus-galli); experiment: Test G Pre-Emergence Protocol; details: Echinochloa crus-galli, pre-emergence, 312 h, evaluated after 13 days; for pest or weed control at 15.625 g/ha: 15.625 g ai/ha; for pest or weed control at 15.625 g/ha / pest or weed control at 250 g/ha: read-out: Barnyardgrass damage rating (100=total damage to plant; 0=no damage to plant); for pest or weed control at 62.5 g/ha: 62.5 g ai/ha, 100=total damage to plant, 0=no damage to plant, read-out: Barnyardgrass damage rating; for pest or weed control at 250 g/ha: 250 g ai/ha
Summary of the method: (§1)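 Seeds were sown in standard soil and kept one day in a glasshouse (24/16° C day/night, 14 h light, 65% humidity), then sprayed with compound in acetone/water (50:50) containing 0.5% Tween 20 at 15.625, 62.5 or 250 g/ha. Damage was scored after 13 days (0 = none, 100 = total).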

corn (Zea mays) [2] = experiment: Test G Pre-Emergence Protocol; details: Zea mays, pre-emergence, 312 h, evaluated after 13 days; for plant injury at 15.625 g/ha: 15.625 g ai/ha; for plant injury at 15.625 g/ha / plant injury at 250 g/ha: read-out: Corn damage rating (100=total damage to plant; 0=no damage to plant); for plant injury at 62.5 g/ha: 62.5 g ai/ha, 100=total damage to plant, 0=no damage to plant, read-out: Corn damage rating; for plant injury at 250 g/ha: 250 g ai/ha
Summary of the method: as §1

[3] = tested on: ivy-leaved morning glory (Ipomoea hederacea); experiment: Test G Pre-Emergence Protocol; details: Ipomoea, pre-emergence, 312 h, evaluated after 13 days; for pest or weed control at 15.625 g/ha: 15.625 g ai/ha; for pest or weed control at 15.625 g/ha / pest or weed control at 250 g/ha: read-out: Morningglory, Ivy-leaved damage rating (100=total damage to plant; 0=no damage to plant); for pest or weed control at 62.5 g/ha: 62.5 g ai/ha, 100=total damage to plant, 0=no damage to plant, read-out: Morningglory, Ivy-leaved damage rating; for pest or weed control at 250 g/ha: 250 g ai/ha
Summary of the method: as §1

[4] = tested on: velvetleaf (Abutilon theophrasti); experiment: Test G Pre-Emergence Protocol; details: Abutilon theophrasti, pre-emergence, 312 h, evaluated after 13 days; for pest or weed control at 15.625 g/ha: 15.625 g ai/ha; for pest or weed control at 15.625 g/ha / pest or weed control at 250 g/ha: read-out: Velvetleaf damage rating (100=total damage to plant; 0=no damage to plant); for pest or weed control at 62.5 g/ha: 62.5 g ai/ha, 100=total damage to plant, 0=no damage to plant, read-out: Velvetleaf damage rating; for pest or weed control at 250 g/ha: 250 g ai/ha
Summary of the method: as §1

[5] = tested on: redroot pigweed (Amaranthus retroflexus); experiment: Test G Pre-Emergence Protocol; details: Amaranthus retroflexus, pre-emergence, 312 h, evaluated after 13 days; for pest or weed control at 15.625 g/ha: 15.625 g ai/ha; for pest or weed control at 15.625 g/ha / pest or weed control at 250 g/ha: read-out: Pigweed, Redroot damage rating (100=total damage to plant; 0=no damage to plant); for pest or weed control at 62.5 g/ha: 62.5 g ai/ha, 100=total damage to plant, 0=no damage to plant, read-out: Pigweed, Redroot damage rating; for pest or weed control at 250 g/ha: 250 g ai/ha
Summary of the method: as §1

[6] = tested on: giant foxtail (Setaria faberi); experiment: Test G Pre-Emergence Protocol; details: Setaria faberi, pre-emergence, 312 h, evaluated after 13 days; for pest or weed control at 15.625 g/ha: 15.625 g ai/ha; for pest or weed control at 15.625 g/ha / pest or weed control at 250 g/ha: read-out: Foxtail, Giant damage rating (100=total damage to plant; 0=no damage to plant); for pest or weed control at 62.5 g/ha: 62.5 g ai/ha, 100=total damage to plant, 0=no damage to plant, read-out: Foxtail, Giant damage rating; for pest or weed control at 250 g/ha: 250 g ai/ha
Summary of the method: as §1

[7] = tested on: barnyardgrass (Echinochloa crus-galli); experiment: Test G Post-Emergence Protocol; details: Echinochloa crus-galli, post-emergence, 312 h, read-out: Barnyardgrass damage rating; for pest or weed control at 15.625 g/ha: 15.625 g ai/ha, evaluated after 13 days (100=total damage to plant; 0=no damage to plant); for pest or weed control at 62.5 g/ha: 62.5 g ai/ha; for pest or weed control at 62.5 g/ha / pest or weed control at 250 g/ha: evaluated after 13 days, 100=total damage to plant, 0=no damage to plant; for pest or weed control at 250 g/ha: 250 g ai/ha
Summary of the method: (§2)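 Foliar application was made 8 days after sowing, using an aqueous spray of the active in acetone/water (50:50) with 0.5% Tween 20, at doses of 15.625, 62.5 or 250 g/ha. Injury was assessed 13 days later, where 100 meant the plant was fully damaged.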

corn (Zea mays) [8] = experiment: Test G Post-Emergence Protocol; details: Zea mays, post-emergence, 312 h, read-out: Corn damage rating; for plant injury at 15.625 g/ha: 15.625 g ai/ha, evaluated after 13 days (100=total damage to plant; 0=no damage to plant); for plant injury at 62.5 g/ha: 62.5 g ai/ha; for plant injury at 62.5 g/ha / plant injury at 250 g/ha: evaluated after 13 days, 100=total damage to plant, 0=no damage to plant; for plant injury at 250 g/ha: 250 g ai/ha
Summary of the method: as §2

[9] = tested on: ivy-leaved morning glory (Ipomoea hederacea); experiment: Test G Post-Emergence Protocol; details: Ipomoea, post-emergence, 312 h, read-out: Morningglory, Ivy-leaved damage rating; for pest or weed control at 15.625 g/ha: 15.625 g ai/ha, evaluated after 13 days (100=total damage to plant; 0=no damage to plant); for pest or weed control at 62.5 g/ha: 62.5 g ai/ha; for pest or weed control at 62.5 g/ha / pest or weed control at 250 g/ha: evaluated after 13 days, 100=total damage to plant, 0=no damage to plant; for pest or weed control at 250 g/ha: 250 g ai/ha
Summary of the method: as §2

[10] = tested on: velvetleaf (Abutilon theophrasti); experiment: Test G Post-Emergence Protocol; details: Abutilon theophrasti, post-emergence, 312 h, read-out: Velvetleaf damage rating; for pest or weed control at 15.625 g/ha: 15.625 g ai/ha, evaluated after 13 days (100=total damage to plant; 0=no damage to plant); for pest or weed control at 62.5 g/ha: 62.5 g ai/ha; for pest or weed control at 62.5 g/ha / pest or weed control at 250 g/ha: evaluated after 13 days, 100=total damage to plant, 0=no damage to plant; for pest or weed control at 250 g/ha: 250 g ai/ha
Summary of the method: as §2

[11] = tested on: redroot pigweed (Amaranthus retroflexus); experiment: Test G Post-Emergence Protocol; details: Amaranthus retroflexus, post-emergence, 312 h, read-out: Pigweed, Redroot damage rating; for pest or weed control at 15.625 g/ha: 15.625 g ai/ha, evaluated after 13 days (100=total damage to plant; 0=no damage to plant); for pest or weed control at 62.5 g/ha: 62.5 g ai/ha; for pest or weed control at 62.5 g/ha / pest or weed control at 250 g/ha: evaluated after 13 days, 100=total damage to plant, 0=no damage to plant; for pest or weed control at 250 g/ha: 250 g ai/ha
Summary of the method: as §2

[12] = tested on: giant foxtail (Setaria faberi); experiment: Test G Post-Emergence Protocol; details: Setaria faberi, post-emergence, 312 h, read-out: Foxtail, Giant damage rating; for pest or weed control at 15.625 g/ha: 15.625 g ai/ha, evaluated after 13 days (100=total damage to plant; 0=no damage to plant); for pest or weed control at 62.5 g/ha: 62.5 g ai/ha; for pest or weed control at 62.5 g/ha / pest or weed control at 250 g/ha: evaluated after 13 days, 100=total damage to plant, 0=no damage to plant; for pest or weed control at 250 g/ha: 250 g ai/ha
Summary of the method: as §2

`CN1C[C@H](c2ccc(C(F)(F)F)cc2)[C@@H](C(=O)Nc2cccc(F)[n+]2[O-])C1=O` (racemic) [Compound 1814] was tested, and the pest or weed control at 15.625 g/ha [1] was 0%, the pest or weed control at 62.5 g/ha [1] was 0% and the pest or weed control at 250 g/ha [1] was 0%. The plant injury at 15.625 g/ha (corn (Zea mays) [2]) was 0%, the plant injury at 62.5 g/ha (corn (Zea mays) [2]) was 0% and the plant injury at 250 g/ha (corn (Zea mays) [2]) was 0%. The pest or weed control at 15.625 g/ha [3] was 0%, the pest or weed control at 62.5 g/ha [3] was 0% and the pest or weed control at 250 g/ha [3] was 0%. It also gave a pest or weed control at 15.625 g/ha [4] of 0%, a pest or weed control at 62.5 g/ha [4] of 0% and a pest or weed control at 250 g/ha [4] of 0%. For the same compound, the pest or weed control at 15.625 g/ha [5] was 0%, the pest or weed control at 62.5 g/ha [5] was 0% and the pest or weed control at 250 g/ha [5] was 0%. For the same compound, the pest or weed control at 15.625 g/ha [6] was 0%, the pest or weed control at 62.5 g/ha [6] was 0% and the pest or weed control at 250 g/ha [6] was 0%. The pest or weed control at 15.625 g/ha [7] was 0%, the pest or weed control at 62.5 g/ha [7] was 0% and the pest or weed control at 250 g/ha [7] was 0%. It also gave a plant injury at 15.625 g/ha (corn (Zea mays) [8]) of 0%, a plant injury at 62.5 g/ha (corn (Zea mays) [8]) of 0% and a plant injury at 250 g/ha (corn (Zea mays) [8]) of 0%. For the same compound, the pest or weed control at 15.625 g/ha [9] was 0%, the pest or weed control at 62.5 g/ha [9] was 0% and the pest or weed control at 250 g/ha [9] was 0%. The pest or weed control at 15.625 g/ha [10] was 0%, the pest or weed control at 62.5 g/ha [10] was 0% and the pest or weed control at 250 g/ha [10] was 0%. It also gave a pest or weed control at 15.625 g/ha [11] of 0%, a pest or weed control at 62.5 g/ha [11] of 0% and a pest or weed control at 250 g/ha [11] of 0%. The pest or weed control at 15.625 g/ha [12] was 0%, the pest or weed control at 62.5 g/ha [12] was 0% and the pest or weed control at 250 g/ha [12] was 10%.

In the case of `CSc1ccncc1NC(=O)[C@H]1C(=O)N(C)C[C@@H]1c1ccc(C(F)(F)F)cc1` (racemic) [Compound 1749], the pest or weed control at 15.625 g/ha [1] is reported as 0%, the pest or weed control at 62.5 g/ha [1] is reported as 0% and the pest or weed control at 250 g/ha [1] is reported as 0%. The plant injury at 15.625 g/ha (corn (Zea mays) [2]) was 0%, the plant injury at 62.5 g/ha (corn (Zea mays) [2]) was 0% and the plant injury at 250 g/ha (corn (Zea mays) [2]) was 0%. The pest or weed control at 15.625 g/ha [3] was 0%, the pest or weed control at 62.5 g/ha [3] was 0% and the pest or weed control at 250 g/ha [3] was 0%. It also gave a pest or weed control at 15.625 g/ha [4] of 0%, a pest or weed control at 62.5 g/ha [4] of 0% and a pest or weed control at 250 g/ha [4] of 0%. For the same compound, the pest or weed control at 15.625 g/ha [5] was 0%, the pest or weed control at 62.5 g/ha [5] was 0% and the pest or weed control at 250 g/ha [5] was 0%. For the same compound, the pest or weed control at 15.625 g/ha [6] was 0%, the pest or weed control at 62.5 g/ha [6] was 0% and the pest or weed control at 250 g/ha [6] was 0%. The pest or weed control at 15.625 g/ha [7] was 0%, the pest or weed control at 62.5 g/ha [7] was 0% and the pest or weed control at 250 g/ha [7] was 0%. It also gave a plant injury at 15.625 g/ha (corn (Zea mays) [8]) of 0%, a plant injury at 62.5 g/ha (corn (Zea mays) [8]) of 0% and a plant injury at 250 g/ha (corn (Zea mays) [8]) of 0%. The pest or weed control at 15.625 g/ha [9] was 0%, the pest or weed control at 62.5 g/ha [9] was 0% and the pest or weed control at 250 g/ha [9] was 0%. For the same compound, the pest or weed control at 15.625 g/ha [10] was 0%, the pest or weed control at 62.5 g/ha [10] was 0% and the pest or weed control at 250 g/ha [10] was 0%. It also gave a pest or weed control at 15.625 g/ha [11] of 0%, a pest or weed control at 62.5 g/ha [11] of 0% and a pest or weed control at 250 g/ha [11] of 0%. It also gave a pest or weed control at 15.625 g/ha [12] of 0%, a pest or weed control at 62.5 g/ha [12] of 0% and a pest or weed control at 250 g/ha [12] of 0%.
